From PMC3684244 (Harmful algae, 2013)
Several values for one entry are separate records, joined by “and”; a condition that tells them apart may be missing. Equal entries are not always repeated.

Key:
[1] = tested on: brevenal site on voltage-sensitive sodium channels (VSSCs), rat brain synaptosomes; format: binding
[2] = molecular target: site 5 on voltage-sensitive sodium channels (VSSCs), rat brain synaptosomes; conditions: read-out: Ki for inhibition of [^3H]-PbTx-3 binding
[3] = tested on: site 5 on voltage-sensitive sodium channels (VSSCs), rat brain synaptosomes; conditions: cited from earlier work

Row | SMILES | Inhibition of [^3H]-brevenol binding (maximum concentration tested) [1] | further results
1 | N=C(N)NC(=O)c1nc(Cl)c(N)nc1N [Amiloride] | No displacement (10 ! M) | 
2 | C=C/C=C\CC[C@H]1O[C@H]2CC[C@@]3(C)O[C@H]4[C@@H](O)C[C@@]5(C)O[C@@H](CC/C=C(C)/C(C)=C/C=O)[C@@H](C)C[C@H]5O[C@@H]4C[C@@H]3O[C@@H]2CC[C@@]1(C)O [Brevenal, brevenal] |  | Ki [2]: 98 nM; Ki ([1]; read-out: Ki for inhibition of [^3H]-brevenol binding): 75 nM and 74.8 nM; Affinity for inhibiting brevetoxin binding relative to brevetoxins (fold lower) [3]: approximately 100 fold
3 | CC1(C)[C@H](C(=O)O[C@H](C#N)c2cccc(Oc3ccccc3)c2)[C@@H]1C=C(Br)Br [Deltamethrin] | No displacement (100 ! M) | 
4 | NC1=N[C@H](O)[C@H]2[C@H]3O[C@]4(O)O[C@@H]([C@@H](O)[C@@]2(N1)[C@@H]4O)[C@]3(O)CO [Tetrodotoxin] | No displacement (10 ! M) | 
5 | COc1ccc(C(=O)O[C@H]2CC[C@@]3(C)[C@@H]4CC[C@H]5[C@]6(O)C[C@H](O)[C@@]7(O)[C@@H](CN8C[C@@H](C)CC[C@H]8[C@@]7(C)O)[C@]6(O)C[C@@]53O[C@]24O)cc1OC [Veratridine] | No displacement (10 ! M) | 
6 | CCN1C[C@]2(COC)[C@H](O)C[C@H](OC)[C@@]34[C@@H]5C[C@@]6(O)[C@H](OC(=O)c7ccccc7)[C@@H]5[C@@](OC(C)=O)([C@@H]([C@H](OC)[C@H]23)[C@@H]14)[C@@H](O)[C@@H]6OC [aconitine] | No displacement (10 ! M) | 
